In patent publication US20240052421A1, “METHOD OF IDENTIFYING AND TREATING MITOCHONDRIAL SUBTYPE TUMORS” (The Trustees of Columbia University in the City of New York, priority 2020, published 2024):

Legend:
Assay type in all cases: cell-based, human
[1] = test system: GBM PDCs; assay: Viability of GBM PDCs (MTC and GPM) treated with inhibitors of glycolysis; conditions: nine MTC and nine GPM PDCs, 72 h treatment
Text: FIGS. 9A-K show MTC PDCs are distinctly sensitive to mitochondrial inhibition. […] Data are mean±s.d. of n≥3 replicates for each PDC from one representative experiment. […] Middle: correlation analysis of MTC (blue) and GPM (red) activity in PDCs (n=25 MTC PDCs and n=21 GPM PDCs; Spearman's correlation, p=−0.51, P=0.0003). Bottom: enrichment of fCNV gain and loss of mitochondrial and glycolytic-related genes in MTC PDCs (n=25) and GPM PDCs (n=21). The number of genes amplified/deleted in each tumor is color coded (amplifications, red to white; deletions, blue to white). FIGS. 9F and G show viability curves of nine MTC PDCs and nine GPM PDCs each derived from an independent patient treated with either FX-11 (F) or DEAB (G). Data are mean±s.d. from n≥4 replicates for each PDC from one representative experiment. […] Data are mean±s.d. of one representative experiment assessed by n=30 replicates for each PDC; **P=0.0022. […] In all experiments, significance was evaluated by two-tailed t-test, unequal variance. […]
(§1) Compound treatment of PDCs. […] Viability was determined using CellTiterGlo assay reagent (Promega, no. G7570) and the GloMax-Multi+Microplate Multimode Reader (Promega).

[2] = test system: MTC PDCs; assay: Viability of MTC patient-derived cells (PDCs) after compound treatment, CellTiterGlo; conditions: 13 MTC PDCs, 72 h treatment, serial dilutions
Text: (§2) FIGS. 9A-K show MTC PDCs are distinctly sensitive to mitochondrial inhibition. […] Data are mean±s.d. of n≥3 replicates for each PDC from one representative experiment. […] Middle: correlation analysis of MTC (blue) and GPM (red) activity in PDCs (n=25 MTC PDCs and n=21 GPM PDCs; Spearman's correlation, p=−0.51, P=0.0003). Bottom: enrichment of fCNV gain and loss of mitochondrial and glycolytic-related genes in MTC PDCs (n=25) and GPM PDCs (n=21). The number of genes amplified/deleted in each tumor is color coded (amplifications, red to white; deletions, blue to white). FIGS. 9F and G show viability curves of nine MTC PDCs and nine GPM PDCs each derived from an independent patient treated with either FX-11 (F) or DEAB (G). Data are mean±s.d. from n≥4 replicates for each PDC from one representative experiment. […] Representative MRs with differential activity (n=304 tumors, n=2,799 cells from dataset 1, n=9,652 cells from dataset 2 and n=4,916 cells from dataset 3; two-sided MWW test, FDR<0.01) in TCGA and at least two out of three single-cell datasets are shown (two-sided MWW-GST test, log it(NES)>0.58, FDR<0.01). Nodes represent MRs and target genes, while lines represent interactions. […] Data are mean±s.d. from one representative experiment including n=3 independent infections for each PDC; **P=0.0010 and 0.0013 for PDC-002 shRNA1 and shRNA2 versus vector, respectively; **P=0.0030 and 0.0023 for PDC-026 shRNA1 and shRNA2 versus vector, respectively; *P=0.0285 for PDC-078 shRNA1 versus vector; *P=0.0142 for PDC-021 shRNA1 versus vector. […] Data are mean±s.d. of one representative experiment assessed by n=30 replicates for each PDC; **P=0.0022. […] Data are mean±s.d. of n=3 independent experiments for each PDC, each performed in triplicate. Bars on the right-hand side of the graph indicate mean±s.e.m. of values observed in the two sets of PDCs; n=7 MTC PDCs and n=7 GPM PDCs, each derived from an independent patient; ***P=0.00006. Experiments in A-D, F, G, I and J were repeated two times with similar results. In all experiments, significance was evaluated by two-tailed t-test, unequal variance.
(§3) Therefore, we tested the sensitivity of 13 MTC and ten GPM PDCs to compounds that interfere with OXPHOS and mitochondrial metabolism. […] Conversely, GPM PDCs were resistant to all four compounds (FIG. 9A-D). […] Furthermore, the complementary fCN gains and losses of MTC and GPM gene sets robustly correlated with mitochondrial inhibitor sensitivity score (FIG. 9E). Treatment of GBM PDCs with inhibitors of glycolysis (DEAB and FX-11)^51 had no effect regardless of the metabolic class of PDC (FIGS. 9F,G).
as §1

[3] = test system: GPM PDCs; assay: Viability of GPM patient-derived cells (PDCs) after compound treatment, CellTiterGlo; conditions: ten GPM PDCs, 72 h treatment, serial dilutions
Text: as §2, §3, §1

[4] = test system: mitochondrial PDOs; assay: Viability of mitochondrial GBM patient-derived organoids (PDOs), serial dilution of mitochondrial inhibitors
Description: (§4) The objective of the study is to test the activity of IM-156, a novel mitochondrial inhibitor currently in clinical testing, in vitro in 25 GBM-PDO organoids previously classified molecularly as mitochondrial (MTC, 13 organoids) or glycolytic/plurimetabolic (GPM, 12 organoids) plus 2 GBM-PDO harboring a FGFR3-TACC3 (F3T3) fusion.
(§5) Using IM-156 (0 μM -15 μM, 1/3 dilution, 7 points and 0-45 μM, 1/3 dilution, 10 points), […], and 2 FGFR3-TACC3 positive GBM PDOs were tested. Seventy-two hours later viability was assessed and the half-maximal inhibitory concentration was calculated. The activity (IC50) of IM-156 was compared with IACS-010759, Metformin, Tigecycline, and Menadione, 4 inhibitors of mitochondrial activity/respiration. […] FGFR3-TACC3 fusion expressing cells had been previously characterized as mitochondrial GBM.

[5] = test system: glycolytic/plurimetabolic PDOs; assay: Viability of glycolytic/plurimetabolic GBM PDOs, serial dilution of mitochondrial inhibitors
Description: as §4, §5

[6] = test system: FGFR3-TACC3 PDOs; assay: Viability of FGFR3-TACC3 positive GBM PDOs, serial dilution of mitochondrial inhibitors
Description: as §4, §5

[7] = 15 μM as highest concentration, 72 h

SMILES: CCN(CC)c1ccc(C=O)cc1 [DEAB]
- effect on viability of GBM PDCs regardless of metabolic class [1]: no effect

SMILES: CCCc1c(O)c(O)c(C(=O)O)c2cc(Cc3ccccc3)c(C)cc12 [FX-11]
- effect on viability of GBM PDCs regardless of metabolic class [1]: no effect

SMILES: Cc1nc(-c2nc(-c3ccc(OC(F)(F)F)cc3)no2)nn1Cc1cccc(N2CCC(S(C)(=O)=O)CC2)c1 [IACS-010759]
- effect on viability of MTC PDCs [2]: reduced the viability
- effect on viability of GPM PDCs [3]: resistant

SMILES: NC(=Nc1ccc(OC(F)(F)F)cc1)N=C(N)N1CCCC1 [IM-156]
- number of mitochondrial PDOs in which the drug was effective [4, 7]: 12 out of 14
- effectiveness in MTC models as opposed to GPM subtype ([4]; MTC versus GPM patient-derived tumor models): significantly more effective
- IC50 ([4]; mitochondrial PDOs, 15 μM as highest concentration, viability at 72 h, read-out: Median IC50): 6.38 µM
- number of glycolytic/plurimetabolic PDOs in which the drug was effective [5, 7]: 2 out of 10
- change in sensitivity of glycolytic/plurimetabolic GBM PDOs on increasing maximum concentration ([5]; maximum concentration raised from 15 μM to 45 μM): significant increase in sensitivity
- number of FGFR3-TACC3 PDOs in which the drug was effective [6, 7]: 2 out of 2
- sensitivity of FGFR3-TACC3 fusion expressing cells ([6]; 2 FGFR3-TACC3 positive GBM PDOs): distinct sensitivity

SMILES: CC1=CC(=O)c2ccccc2C1=O [menadione]
- effect on viability of MTC PDCs [2]: reduced the viability
- effect on viability of GPM PDCs [3]: resistant

SMILES: CN(C)C(=N)N=C(N)N [metformin]
- effect on viability of MTC PDCs [2]: reduced the viability
- effect on viability of GPM PDCs [3]: resistant

SMILES: CN(C)c1cc(NC(=O)CNC(C)(C)C)c(O)c2c1C[C@H]1C[C@H]3[C@H](N(C)C)C(O)=C(C(N)=O)C(=O)[C@@]3(O)C(O)=C1C2=O [tigecycline]
- effect on viability of MTC PDCs [2]: reduced the viability
- effect on viability of GPM PDCs [3]: resistant
